Data taken from ChEMBL document CHEMBL1156598 (J Med Chem, 2008).

Columns and labels:
[1] = molecular target: T1, Cytochrome P450 11B2, mitochondrial (Homo sapiens, UniProt P19099); experiment: Inhibition of human CYP11B2 expressed in hamster V79MZh11B2 cells; assay type: cell-based
T1 sequence (P19099 whole entry): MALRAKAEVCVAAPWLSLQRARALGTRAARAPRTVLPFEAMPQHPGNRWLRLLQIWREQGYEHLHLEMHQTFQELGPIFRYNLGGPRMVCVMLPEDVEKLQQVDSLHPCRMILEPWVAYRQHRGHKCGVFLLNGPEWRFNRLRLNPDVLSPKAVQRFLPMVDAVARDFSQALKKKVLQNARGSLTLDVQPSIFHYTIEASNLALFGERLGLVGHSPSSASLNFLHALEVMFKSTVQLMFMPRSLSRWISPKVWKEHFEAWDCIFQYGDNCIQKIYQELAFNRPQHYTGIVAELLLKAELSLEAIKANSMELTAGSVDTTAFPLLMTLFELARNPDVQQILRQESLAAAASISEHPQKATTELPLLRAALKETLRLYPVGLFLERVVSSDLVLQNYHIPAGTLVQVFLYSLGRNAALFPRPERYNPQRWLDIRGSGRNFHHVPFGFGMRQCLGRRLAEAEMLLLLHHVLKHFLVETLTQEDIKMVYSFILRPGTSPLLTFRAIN

Cytochrome P450 3A4 = Cytochrome P450 3A4 (Homo sapiens, UniProt P08684); experiment: Inhibition of recombinant CYP3A4 expressed in baculovirus-infected insect microsomes; assay type: ADME, Microsome
Sequence of Cytochrome P450 3A4 (P08684 whole entry): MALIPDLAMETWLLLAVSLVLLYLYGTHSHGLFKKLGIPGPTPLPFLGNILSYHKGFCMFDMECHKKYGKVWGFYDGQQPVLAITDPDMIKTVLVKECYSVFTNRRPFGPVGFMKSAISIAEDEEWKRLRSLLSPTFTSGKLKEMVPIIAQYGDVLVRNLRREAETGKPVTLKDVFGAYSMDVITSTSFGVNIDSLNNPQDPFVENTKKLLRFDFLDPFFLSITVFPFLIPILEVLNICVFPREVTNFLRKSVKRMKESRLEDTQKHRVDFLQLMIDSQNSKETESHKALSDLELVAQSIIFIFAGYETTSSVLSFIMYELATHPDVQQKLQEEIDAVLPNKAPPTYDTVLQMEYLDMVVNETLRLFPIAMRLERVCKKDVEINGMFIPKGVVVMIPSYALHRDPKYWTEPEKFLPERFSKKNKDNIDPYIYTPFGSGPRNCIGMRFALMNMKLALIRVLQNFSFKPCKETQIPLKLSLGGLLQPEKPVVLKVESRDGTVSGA

[2] = molecular target: T2, Steroid 17-alpha-hydroxylase/17,20 lyase (Homo sapiens, UniProt P05093); experiment: Inhibition of human recombinant CYP17 expressed in Escherichia coli coexpressing NADPH-P450 reductase
T2 sequence (P05093 whole entry): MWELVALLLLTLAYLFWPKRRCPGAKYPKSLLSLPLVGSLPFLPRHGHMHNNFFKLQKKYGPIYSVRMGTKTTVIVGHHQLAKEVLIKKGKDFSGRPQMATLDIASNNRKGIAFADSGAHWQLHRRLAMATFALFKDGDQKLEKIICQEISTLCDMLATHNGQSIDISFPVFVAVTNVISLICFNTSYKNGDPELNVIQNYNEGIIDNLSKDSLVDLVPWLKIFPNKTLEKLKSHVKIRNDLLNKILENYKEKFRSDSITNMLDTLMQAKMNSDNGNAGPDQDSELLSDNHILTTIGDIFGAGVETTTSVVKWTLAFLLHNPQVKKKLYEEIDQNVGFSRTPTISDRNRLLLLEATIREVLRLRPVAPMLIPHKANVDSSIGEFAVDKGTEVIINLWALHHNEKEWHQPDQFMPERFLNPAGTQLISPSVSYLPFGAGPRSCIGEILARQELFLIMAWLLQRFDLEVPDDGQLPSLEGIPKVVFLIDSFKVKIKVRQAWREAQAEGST

[3] = molecular target: T3, Cytochrome P450 11B1, mitochondrial (Homo sapiens, UniProt P15538); experiment: Inhibition of human CYP11B1 expressed in hamster V79MZh11B1 cells; assay type: cell-based
T3 sequence (P15538 whole entry): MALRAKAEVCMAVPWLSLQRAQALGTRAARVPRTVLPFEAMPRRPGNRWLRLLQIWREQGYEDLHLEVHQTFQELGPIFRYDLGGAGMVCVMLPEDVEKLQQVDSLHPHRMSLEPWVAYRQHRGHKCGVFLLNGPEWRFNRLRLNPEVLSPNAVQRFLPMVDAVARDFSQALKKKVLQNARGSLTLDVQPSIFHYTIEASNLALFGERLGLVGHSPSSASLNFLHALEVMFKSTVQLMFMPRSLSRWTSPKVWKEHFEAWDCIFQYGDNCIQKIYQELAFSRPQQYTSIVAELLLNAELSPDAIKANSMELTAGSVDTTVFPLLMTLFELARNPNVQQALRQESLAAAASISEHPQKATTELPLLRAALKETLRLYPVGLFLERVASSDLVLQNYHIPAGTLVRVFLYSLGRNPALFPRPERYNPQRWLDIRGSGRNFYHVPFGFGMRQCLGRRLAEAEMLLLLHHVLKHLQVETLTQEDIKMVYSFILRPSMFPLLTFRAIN

IC50 [1] [nM]	IC50 (Cytochrome P450 3A4) [µM]	IC50 [2] [nM]	IC50 [3] [nM]	Compound
1750	–	–	–	C[C@]12CC[C@H](O)CC1=CC[C@@H]1[C@@H]2CC[C@]2(C)C(c3cccnc3)=CC[C@@H]12 [ABIRATERONE]
–	13.8	–	–	OC1(c2ccncc2)CCCc2cc(-c3ccc(F)c(F)c3)ccc21 (stereo unspecified)
–	> 20	–	–	OC1(c2cccnc2)CCc2cc(-c3ccc(F)cc3)ccc21 (stereo unspecified)
311	3.64	> 5000	> 20000	Fc1ccc(-c2ccc3c(c2)CCC=C3c2ccncc2)cc1F
–	0.632	–	–	Oc1ccc(-c2ccc3c(c2)CCCC3c2ccncc2)cc1O (stereo unspecified)
840	8.76	587	1160	OC1(c2ccncc2)CCCc2cc(-c3ccc(F)cc3)ccc21 (stereo unspecified)
–	1.7	> 20000	–	Fc1ccc(-c2ccc3c(c2)CCC3c2cccnc2)cc1 (stereo unspecified)
–	0.159	–	–	Fc1ccc(-c2ccc3c(c2)CC=C3c2ccncc2)cc1
–	2.39	–	–	COc1ccc(-c2ccc3c(c2)CC=C3c2ccncc2)cc1
–	0.357	–	–	Oc1ccc(-c2ccc3c(c2)CCC=C3c2ccncc2)cc1O
991	2.11	188	2750	Oc1ccc(-c2ccc3c(c2)CCC=C3c2ccncc2)cc1F
–	4.2	–	–	Fc1ccc(-c2ccc3c(c2)CCC=C3c2ccncc2)cc1
587	3.39	64	1370	Oc1ccc(-c2ccc3c(c2)CCCC3c2ccncc2)cc1F (stereo unspecified)
–	3.23	–	–	OC1(c2ccncc2)CCc2cc(-c3ccc(F)cc3)ccc21 (stereo unspecified)
436	3.36	> 10000	291	COc1ccc(-c2ccc3c(c2)CCC3(O)c2ccncc2)cc1F (stereo unspecified)
945	15.2	> 5000	686	COc1ccc(-c2ccc3c(c2)CCCC3(O)c2ccncc2)cc1F (stereo unspecified)
518	2.17	163	> 5000	Fc1ccc(-c2ccc3c(c2)CCCC3c2ccncc2)cc1 (stereo unspecified)
–	6.95	2350	–	Fc1ccc(-c2ccc3c(c2)CC=C3c2cccnc2)cc1
–	3.29	–	–	COc1ccc(-c2ccc3c(c2)CCC3(O)c2ccncc2)cc1 (stereo unspecified)
543	1.09	233	1080	Fc1ccc(-c2ccc3c(c2)CCC3c2ccncc2)cc1 (stereo unspecified)
